According to US11318134B2, “Benzamide compounds” (priority 2018, dated 2022):

Columns and labels:
Bcl-2 = Bcl-2 (Homo sapiens (Human), UniProt P10415); test: Bcl-2 protein family binding assay (Bcl2scan platform), Bcl-2; settings: BIM peptide ligand, 11-point dilution, read-out: Bc1-2 Kd (nm)
Protocol: (§1) E. coli were grown to log-phase and infected with T7 phage from a frozen stock (multiplicity of infection=0.4) and incubated with shaking at 32° C. until lysis (90-150 minutes). The lysates were centrifuged (5,000×g) and filtered (0.2 μm) to remove cell debris. […] The liganded beads were blocked with excess biotin and washed with blocking buffer (SeaBlock (Pierce), 1% BSA, 0.05% Tween 20, 1 mM DTT) to remove unbound ligand and to reduce non-specific phage binding. […] Test compounds were prepared as 100× stocks in 100% DMSO. Kds were determined using an 11-point 3-fold compound dilution series with one DMSO control point. […] The compounds were then diluted directly into the assays such that the final concentration of DMSO was 0.9%. All reactions performed in polypropylene 384-well plates. Each was a final volume of 0.02 ml. […] The BCL2 concentration in the eluates was measured by qPCR. Binding constants (Kds) were calculated with a standard dose-response curve using the Hill equation:
(§2) [formula] The Hill Slope was set to −1. Curves were fitted using a non-linear least square fit with the Levenberg-Marquardt algorithm.

Bcl-XL = Bcl-XL (Homo sapiens (Human), UniProt Q07817); test: Bcl-2 protein family binding assay (Bcl2scan platform), Bcl-XL; settings: BIM peptide ligand, 11-point dilution, read-out: Bc1-XL Kd (nm)
Chain of Bcl-XL (Q07817 whole entry): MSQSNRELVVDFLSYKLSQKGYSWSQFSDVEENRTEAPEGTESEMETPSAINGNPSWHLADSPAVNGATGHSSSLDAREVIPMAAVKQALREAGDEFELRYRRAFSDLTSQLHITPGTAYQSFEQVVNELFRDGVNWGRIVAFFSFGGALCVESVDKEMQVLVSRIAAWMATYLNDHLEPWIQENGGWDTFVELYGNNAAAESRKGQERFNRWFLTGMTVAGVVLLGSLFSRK
Protocol: as §1, §2

RS4;11 cells = test: RS4;11 cell proliferation assay (CellTiter-Glo); assay type: cell-based; settings: Homo sapiens, RS4-11, 48 h, read-out: RS4;11 (nM), CTG IC50
Protocol: Cell proliferation was measured using the CellTiter-Glo® Luminescent Cell Viability Assay. The assay involved the addition of a single reagent (CellTiter-Glo® Reagent) directly to cells cultured in serum-supplemented medium.
Each compound evaluated was prepared as a DMSO stock solution (10 mM). Compounds were tested in duplicate on each plate, with a 10-point serial dilution curve (1:3 dilution). Compound treatment (1.0 μL) was added from the compound dilution plate to the cell plate. The highest compound concentration was 10 μM (final), with a 0.1% final DMSO concentration. Plates were then incubated at 37° C., 5% CO2. After 48 h of compound treatment for RS4;11 or 72 h for NCI-H1963, cell plates were equilibrated at rt for approximately 30 mins. An equi-volume amount of CellTiter-Glo® Reagent (40 μL) was added to each well. […] Luminescence was recorded using a Envision plate reader according to CellTiter-Glo protocol. IC50 of each compound was calculated using GraphPad Prism by nonlinear regression analysis.

Chain of Bcl-2 (P10415 whole entry): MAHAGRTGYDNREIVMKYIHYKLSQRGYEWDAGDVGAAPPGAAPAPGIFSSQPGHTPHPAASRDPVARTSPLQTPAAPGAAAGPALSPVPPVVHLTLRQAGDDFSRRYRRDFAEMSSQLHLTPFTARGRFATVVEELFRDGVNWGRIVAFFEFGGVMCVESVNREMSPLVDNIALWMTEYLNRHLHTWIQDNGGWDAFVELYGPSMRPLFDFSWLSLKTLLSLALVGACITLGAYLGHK

| SMILES | Kd (Bcl-2) [µM] | Kd (Bcl-XL) [µM] | IC50 (RS4;11 cells) [nM] |
| --- | --- | --- | --- |
| CCC12CC(C3=C(CN4CCN(c5ccc(C(=O)NS(=O)(=O)c6ccc(NC[C@H]7CC[C@](C)(O)CC7)c([N+](=O)[O-])c6)c(Oc6cnc7[nH]ccc7c6)c5)CC4)CCC(C)(C)C3)(C1)C2 [Example 27, 2-((1H-pyrrolo[2,3-b]pyridin-5-yl)oxy)-4-(4-((2-(3-ethylbicyclo[1.1.1]pentan-1-yl)-4,4-dimethylcyclohex-1-en-1-yl)methyl)piperazin-1-yl)-N-((4-((((1r,4r)-4-hydroxy-4-methylcyclohexyl)methyl)amino)-3-nitrophenyl)sulfonyl)benzamide] | < 0.01 | > 0.1 | < 100 |
| CC1(C)CCC(CN2CCN(c3ccc(C(=O)NS(=O)(=O)c4ccc(NCC5CCOCC5)c([N+](=O)[O-])c4)c(Oc4cnc5[nH]ccc5c4)c3)CC2)=C(C23CC(C(F)(F)F)(C2)C3)C1 [Example 28, 2-((1H-pyrrolo[2,3-b]pyridin-5-yl)oxy)-4-(4-((4,4-dimethyl-2-(3-(trifluoromethyl)bicyclo[1.1.1]pentan-1-yl)cyclohex-1-en-1-yl)methyl)piperazin-1-yl)-N-((3-nitro-4-(((tetrahydro-2H-pyran-4-yl)methyl)amino)phenyl)sulfonyl)benzamide] | < 0.01 | > 0.1 | < 100 |
| CC1(C)CCC(CN2CCN(c3ccc(C(=O)NS(=O)(=O)c4ccc(NCC5(F)CCOCC5)c([N+](=O)[O-])c4)c(Oc4cnc5[nH]ccc5c4)c3)CC2)=C(C23CC(C(F)(F)F)(C2)C3)C1 [Example 30, 2-((1H-pyrrolo[2,3-b]pyridin-5-yl)oxy)-4-(4-((4,4-dimethyl-2-(3-(trifluoromethyl)bicyclo[1.1.1]pentan-1-yl)cyclohex-1l-en-1-yl)methyl)piperazin-1-yl)-N-((4-(((4-fluorotetrahydro-2H-pyran-4-yl)methyl)amino)-3-nitrophenyl)sulfonyl)benzamide] | < 0.01 | > 0.1 | < 100 |
| CC1(C)CCC(CN2CCN(c3ccc(C(=O)NS(=O)(=O)c4ccc(OCC5(F)CCOCC5)c([N+](=O)[O-])c4)c(Oc4cnc5[nH]ccc5c4)c3)CC2)=C(C23CC(C(F)(F)F)(C2)C3)C1 [Example 31, 2-((1H-pyrrolo[2,3-b]pyridin-5-yl)oxy)-4-(4-((4,4-dimethyl-2-(3-(trifluoromethyl)bicyclo[1.1.1]pentan-1-yl)cyclohex-1-en-1-yl)methyl)piperazin-1-yl)-N-((4-((4-fluorotetrahydro-2H-pyran-4-yl)methoxy)-3-nitrophenyl)sulfonyl)benzamide] | < 0.01 | > 0.1 | < 100 |
| CC1(C)CCC(CN2CCN(c3ccc(C(=O)NS(=O)(=O)c4ccc(NC[C@H]5CC[C@](C)(O)CC5)c([N+](=O)[O-])c4)c(Oc4cnc5[nH]ccc5c4)c3)CC2)=C(C23CC(C(F)(F)F)(C2)C3)C1 [Example 32, 2-((1H-pyrrolo[2,3-b]pyridin-5-yl)oxy)-4-(4-((4,4-dimethyl-2-(3-(trifluoromethyl)bicyclo[1.1.1]pentan-1-yl)cyclohex-1-en-1-yl)methyl)piperazin-1-yl)-N-((4-((((1r,4r)-4-hydroxy-4-methylcyclohexyl)methyl)amino)-3-nitrophenyl)sulfonyl)benzamide] | < 0.01 | > 0.1 | < 100 |
| CC1(C)CCC(CN2CCN(c3ccc(C(=O)NS(=O)(=O)c4ccc(NCC5CCOCC5)c([N+](=O)[O-])c4)c(Oc4cnc5[nH]ccc5c4)c3)CC2)=C(C23CC(C(F)F)(C2)C3)C1 [Example 33, 2-((1H-pyrrolo[2,3-b]pyridin-5-yl)oxy)-4-(4-((2-(3-(difluoromethyl)bicyclo[1.1.1]pentan-1-yl)-4,4-dimethylcyclohex-1-en-1-yl)methyl)piperazin-1-yl)-N-((3-nitro-4-(((tetrahydro-2H-pyran-4-yl)methyl)amino)phenyl)sulfonyl)benzamide] | < 0.01 | > 0.1 | < 100 |
| CC1(C)CCC(CN2CCN(c3ccc(C(=O)NS(=O)(=O)c4ccc(NCC5(F)CCOCC5)c([N+](=O)[O-])c4)c(Oc4cnc5[nH]ccc5c4)c3)CC2)=C(C23CC(C(F)F)(C2)C3)C1 [Example 35, 2-((1H-pyrrolo[2,3-b]pyridin-5-yl)oxy)-4-(4-((2-(3-(difluoromethyl)bicyclo[1.1.1]pentan-1-yl)-4,4-dimethylcyclohex-1-en-1-yl)methyl)piperazin-1-yl)-N-((4-(((4-fluorotetrahydro-2H-pyran-4-yl)methyl)amino)-3-nitrophenyl)sulfonyl)benzamide] | < 0.01 | > 0.1 | < 100 |
| CC1(C)CCC(CN2CCN(c3ccc(C(=O)NS(=O)(=O)c4ccc(OCC5(F)CCOCC5)c([N+](=O)[O-])c4)c(Oc4cnc5[nH]ccc5c4)c3)CC2)=C(C23CC(C(F)F)(C2)C3)C1 [Example 36, 2-((1H-pyrrolo[2,3-b]pyridin-5-yl)oxy)-4-(4-((2-(3-(difluoromethyl)bicyclo[1.1.1]pentan-1-yl)-4,4-dimethylcyclohex-1-en-1-yl)methyl)piperazin-1-yl)-N-((4-((4-fluorotetrahydro-2H-pyran-4-yl)methoxy)-3-nitrophenyl)sulfonyl)benzamide] | < 0.01 | 0.01 to 0.1 | < 100 |
| CN1CCC(F)(CNc2ccc(S(=O)(=O)NC(=O)c3ccc(N4CCN(CC5=C(C67CC(C(F)F)(C6)C7)CC(C)(C)CC5)CC4)cc3Oc3cnc4[nH]ccc4c3)cc2[N+](=O)[O-])CC1 [Example 38, 2-((1H-pyrrolo[2,3-b]pyridin-5-yl)oxy)-4-(4-((2-(3-(difluoromethyl)bicyclo[1.1.1]pentan-1-yl)-4,4-dimethylcyclohex-1-en-1-yl)methyl)piperazin-1-yl)-N-((4-(((4-fluoro-1-methylpiperidin-4-yl)methyl)amino)-3-nitrophenyl)sulfonyl)benzamide] | < 0.01 | 0.01 to 0.1 | < 100 |
| CC(C)C12CC(C3=C(CN4CCN(c5ccc(C(=O)NS(=O)(=O)c6ccc(NCC7CCOCC7)c([N+](=O)[O-])c6)c(Oc6cnc7[nH]ccc7c6)c5)CC4)CCC(C)(C)C3)(C1)C2 [Example 39, 2-((1H-pyrrolo[2,3-b]pyridin-5-yl)oxy)-4-(4-((2-(3-isopropylbicyclo[0.1.1]pentan-1-yl)-4,4-dimethylcyclohex-1-en-1-yl)methyl)piperazin-1-yl)-N-((3-nitro-4-(((tetrahydro-2H-pyran-4-yl)methyl)amino)phenyl)sulfonyl)benzamide] | 0.01 to 0.1 | > 0.1 | < 100 |
| CC1(C)CCC(CN2CCN(c3ccc(C(=O)NS(=O)(=O)c4ccc(NCC5CCOCC5)c([N+](=O)[O-])c4)c(Oc4cnc5[nH]ccc5c4)c3)CC2)=C(C23CC(C(C)(F)F)(C2)C3)C1 [Example 40, 2-(1H-pyrrolo[2,3-b]pyridin-5-yloxy)-4-(4-((2-(3-(1,1-difluoroethyl)bicyclo[1.1.1]pentan-1-yl)-4,4-dimethylcyclohex-1-enyl)methyl)piperazin-1-yl)-N-(3-nitro-4-((tetrahydro-2H-pyran-4-yl)methylamino)phenylsulfonyl)benzamide] | < 0.01 | > 0.1 | < 100 |
